The source of these data is patent US12708676B2, “Phosphate compounds for detecting neurological disorders” (Amydis, Inc., priority 2018, dated 2026).

Structures are written as SMILES. Read-outs that look alike come from different tables or passages of the source.

Series [1] in a line: Rabbit pharmacokinetics of Compound 9, Study 2 (retina, brain, blood/plasma). As to conditions: rabbit. It counts as in vivo. The procedure: Compound 9 was injected into rabbits as a solution in 0.1 M phosphate buffer, pH 7.4 such that rabbits received either 30 mg of Compound 9 (Study 1) or 28 mg of Compound 9 (Study 2). The purpose of these studies was to confirm that Compound 9 could easily be converted into Compound 7 in vivo.
Study 2: The purpose of this study was to determine if higher concentrations of Compound 9 and/or Compound 7 was present at earlier time points in the tissues specified. Rabbits received a 1.4 mL injection of a 20 mg/mL solution of Compound 9 in 0.1 M phosphate buffer, pH 7.4. Blood was collected from rabbits (N=6) two minutes after receiving Compound 9 to determine the blood concentration at this time point (Table 8). Rabbits were then sacrificed at the specified time points (N=3 per time point) in the tables below and the average concentrations of Compound 9 and Compound 7 were determined in the retina (Table 6), brain (Table 7) and blood (Table 8).

In series [2] the target is amyloid deposits associated with CAA (Homo sapiens, UniProt P05067). The series is described as follows: Example 8: ex vivo staining of human CAA brain tissue. It counts as binding. The text has this:
Post-mortem brain tissue from patients diagnosed with CAA were examined to de-risk the translation from the limited robust preclinical animal models to humans. This study was designed to understand the fundamental basis of fluorescently detecting amyloids using human tissue. […] Human CAA brain tissue and healthy control brain tissue was acquired (University of California, San Diego, CA). […] All CAA patients were female and ranged in age from 70-93 years. Control brains were obtained from cognitively normal patients that ranged in age from 82-94 years from both male and female donors.

The mark [3] stands for this setting: brain, other: injection (site or type of injection not stated), Study 2, 28 mg Compound 9 injected, read-out: Avg Conc., brain.
The mark [4] stands for this setting: plasma, other: injection (site not specified), Study 2, 28 mg Compound 9 injected, read-out: Avg Conc., plasma.
The mark [5] stands for this setting: retina, other: injection (site not stated), Study 2, 28 mg Compound 9 injected, read-out: Avg Conc., retina.

amyloid deposits associated with CAA, sequence (P05067 672-711 limits assumed): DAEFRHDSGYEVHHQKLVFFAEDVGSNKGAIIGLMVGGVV

For `N#C/C(=C\c1ccc2cc(N3CCCCC3)ccc2c1)C(=O)NCCOCCOCCO` [Compound 7, (E)-2-cyano-N-(2-(2-(2-hydroxyethoxy)ethoxy)ethyl)-3-(6-(piperidin-1-yl)naphthalen-2-yl)acrylamide], the concentration at 5 min in series [1] (setting [3]) was determined as 316 ± 91.6 ng/g; in series [1] (setting [4]), 975 ± 317 ng/mL; in series [1] (setting [5]), 682 ± 119 ng/g; in series [1] (retina, Study 2, 28 mg Compound 9 injected, read-out: Avg Conc., retina), 682 ng/g. Further, the values for the concentration at 10 min in series [1] (setting [3]), in series [1] (setting [4]) and in series [1] (setting [5]) were 68.1 ± 8.86 ng/g, 251 ± 13.9 ng/mL and 183 ± 152 ng/g, respectively. Besides, the concentration at 2 min in series [1] (plasma, other: injection (site not specified), Study 2, 28 mg Compound 9 injected, 2 min, read-out: Avg Conc., plasma) amounted to 1480 ± 409 ng/mL. Besides, the “Time at which Kp,brain was highest” value in series [1] (post-dose of Compound 9) was determined as 5 min. Besides, in series [1] (via administration of Compound 9 diammonium salt), the “Delivery past the blood brain barrier and into retinal tissue” value is “delivered past the blood brain barrier (BBB) and, more importantly, into retinal tissue”. In series [2] (healthy control human brains), the Staining entry is on record as “absent”. Besides, the “Staining of amyloid deposits” value in series [2] (human CAA brains) is “successfully stains amyloid deposits associated with CAA”.
